Laboratory results published in patent publication US20070299129A1, “Compounds and derivatives for the treatment of medical conditions by modulating hormone-sensitive lipase activity” (DEVIRIS INC., priority 2006, published 2007).
Where “and” joins values, the source holds several entries; their conditions need not be identical. Equal entries are not always repeated.

Legend:
[1] = target: T1, recombinant His-HSL (hormone-sensitive lipase) (Rattus norvegicus, UniProt P15304); experiment: Assay for potency of inhibition on HSL activity (neutral cholesteryl ester hydrolase activity, cholesteryl [1-14C]oleate), Example 1; format: biochemical; details: for % inhibition of HSL: in the presence of DTT (1 mM), inhibitor range 0-2.4 mg/mL (FIG. 1, Table 1); for HSL Activity (DPM) (average): HSL + DTT (1 mM), control without inhibitor 1585.64 DPM
T1 construct: cloning full-length rat HSL cDNA into the SmaI site of pAcHLT-A; His6 (N); made in house; host or cells: Sf21 insect cells (baculovirus, BaculoGold)
T1 sequence (P15304 1-768 isoform P15304-2): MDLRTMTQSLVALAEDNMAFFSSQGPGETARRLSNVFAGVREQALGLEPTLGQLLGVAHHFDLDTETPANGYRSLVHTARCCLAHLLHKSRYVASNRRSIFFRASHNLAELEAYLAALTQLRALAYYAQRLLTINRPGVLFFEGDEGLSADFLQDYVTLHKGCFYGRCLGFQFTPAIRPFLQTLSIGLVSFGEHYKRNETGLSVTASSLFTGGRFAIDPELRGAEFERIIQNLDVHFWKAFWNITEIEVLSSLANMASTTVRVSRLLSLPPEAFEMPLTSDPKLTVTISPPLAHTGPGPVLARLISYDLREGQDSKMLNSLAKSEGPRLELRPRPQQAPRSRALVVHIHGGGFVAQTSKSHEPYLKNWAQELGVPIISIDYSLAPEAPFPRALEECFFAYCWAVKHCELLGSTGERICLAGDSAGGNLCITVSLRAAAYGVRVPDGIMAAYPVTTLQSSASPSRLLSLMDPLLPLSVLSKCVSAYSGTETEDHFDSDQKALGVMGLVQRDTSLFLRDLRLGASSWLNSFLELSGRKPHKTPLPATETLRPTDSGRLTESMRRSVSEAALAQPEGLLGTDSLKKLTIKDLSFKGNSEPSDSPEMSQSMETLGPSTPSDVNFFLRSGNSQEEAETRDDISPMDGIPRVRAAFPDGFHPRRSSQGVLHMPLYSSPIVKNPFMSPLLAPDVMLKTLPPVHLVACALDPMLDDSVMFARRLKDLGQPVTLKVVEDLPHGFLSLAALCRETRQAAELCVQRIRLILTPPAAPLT
Description: Production of Recombinant HSL: Recombinant His-HSL was generated by cloning full-length rat HSL cDNA into the SmaI site of pAcHLT-A containing a His6 tag. pAcHLT-A-HSL (5 μg) was co-transfected into Sf21 cells with 0.5 μg of BaculoGold™ DNA using the transfection kit from the manufacturer. The titer of the recombinant virus was determined using an end point dilution assay, and the virus was re-amplified to a final titer of 1.5×10^7 pfu/ml. To produce recombinant proteins, Sf21 cells were grown in 150 mm Petri dishes and each 2×10^7 cells were infected with 100 μl of the high titer recombinant virus; cells were harvested three days after infection. After harvesting and cell extraction, His-HSL was purified on a Ni-agarose column.
Preparation of Substrate for Neutral Cholesteryl Ester Hydrolase Activity Assay: HSL activity was determined as neutral cholesteryl ester hydrolase activity using a cholesteryl[1-14C]oleate emulsion for measurement of cellular activity, as described previously. Substrate for the cholesteryl ester assay was prepared by adding 1.25 μCi cholesteryl [1-14C]oleate (purified by thin-layer chromatography), 0.043 mmol phosphatidylcholine, and 0.011 mmol cholesteryl oleate into 2.5 mL of 100 mM potassium phosphate buffer (pH 7.0) containing 5 mM sodium taurocholate. The substrate solution was vortexed and then sonicated for 3 hours with a Branson Sonifier/Cell Disruptor model W-350 on an output setting of 5.0 (50%). The substrate was centrifuged at 3000 rpm for 15 min to remove metallic fragments released by the probe and stored under nitrogen at 4° C. for up to one week.
Preparation of Inhibitor Stock Solution: Inhibitors (fraction # O-4355, O-4350, O-4361, O-4456, O-4457) were obtained from olives, olive oil, roots, bark and leaves from olea europeae species as previously described (Paiva-Martins et al., J. Agric. Food Chem., 49:4214-4219, 2001) and dissolved in 200 μL DMSO with 800 μL distilled water at a concentration of 10 mg/ml. This was regarded as stock solution. 0-60 μL of the stock solution were added to the HSL assay to achieve a final concentration of 0-2.4 mg/ml of the inhibitors. The same volume of DMSO without inhibitors was performed as a control.
Assay for Potency of Inhibition on HSL Activity by the Inhibitors: Aliquots of recombinant HSL protein and various concentrations of inhibitors (0-2.4 mg/mL final concentration) were mixed and the volume adjusted to 100 μL and mixed with 140 μL 0.05% bovine serum albumin in 100 mM potassium phosphate, pH 7.0. After the addition of 10 μL of substrate (100 μM final concentration), the assay was carried out at 37° C. for 60 min. The reaction was stopped by the addition of chloroform:methanol:heptane (250:230:180). After the addition of borate/carbonate buffer (0.1 M, pH, 10.5), the tubes were vortexed and centrifuged, and aliquots of the upper phase were taken for liquid scintillation counting in a Beckman scintillation counter.

[2] = target: T2, COX-2 (Homo sapiens, UniProt P35354); details: Smith et al., Organic Letters, 7:5075-5078, 2005; cited from earlier work
T2 sequence (P35354 18-604): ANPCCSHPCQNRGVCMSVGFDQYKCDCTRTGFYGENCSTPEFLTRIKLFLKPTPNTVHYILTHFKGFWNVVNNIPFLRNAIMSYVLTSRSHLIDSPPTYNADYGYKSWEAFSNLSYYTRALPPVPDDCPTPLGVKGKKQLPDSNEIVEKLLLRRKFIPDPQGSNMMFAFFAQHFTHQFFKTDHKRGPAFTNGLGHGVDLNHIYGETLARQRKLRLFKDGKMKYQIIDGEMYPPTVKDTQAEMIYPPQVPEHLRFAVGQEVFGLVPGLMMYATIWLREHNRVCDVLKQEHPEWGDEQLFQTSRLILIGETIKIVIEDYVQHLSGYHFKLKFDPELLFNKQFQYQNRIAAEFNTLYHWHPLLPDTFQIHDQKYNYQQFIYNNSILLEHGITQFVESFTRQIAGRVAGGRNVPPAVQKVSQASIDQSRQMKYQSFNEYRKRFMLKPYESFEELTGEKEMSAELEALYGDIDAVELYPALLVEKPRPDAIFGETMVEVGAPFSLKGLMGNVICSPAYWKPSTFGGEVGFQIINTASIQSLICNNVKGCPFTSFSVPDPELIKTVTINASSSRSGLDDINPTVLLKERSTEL

| Compound | % inhibition of HSL [1] | HSL Activity (DPM) (average) ([1]; inhibitor 0.4 mg/mL) | HSL Activity (DPM) (average) ([1]; inhibitor 0.8 mg/mL) | HSL Activity (DPM) (average) ([1]; inhibitor 1.2 mg/mL) | HSL Activity (DPM) (average) ([1]; inhibitor 1.6 mg/mL) | HSL Activity (DPM) (average) ([1]; inhibitor 2.0 mg/mL) | HSL Activity (DPM) (average) ([1]; inhibitor 2.4 mg/mL) | anti-COX-2 activity [2] |
| --- | --- | --- | --- | --- | --- | --- | --- | --- |
| CC=C(C=O)C(CC=O)CC(=O)OCCc1ccc(O)c(O)c1 (stereo not drawn) [O-4457, 3,4-dihydroxyphenylelenolic acid dialdehyde] | 97% and 97.95% | 214.85 | 87.105 | 48.025 | 49.885 | 39.545 | 32.495 | – |
| C/C=C(/C=O)[C@@H](CC=O)CC(=O)OCCc1ccc(O)cc1 [O-4456, para-hydroxyphenylelenolic acid dialdehyde] | 98% and 98.42% | 123.5 | 52.6035 | 51.145 | 88.595 | 49.56 | 25.035 | having anti-COX-2 activity |
